Experimental data taken from publication PMC9798004 (Frontiers in Psychiatry, 2022).

How the values were obtained:
Test in all cases: PathHunter β-arrestin assay
Type in all cases: cell-based
[1] = biological target: T1, PTGIR (Homo sapiens, UniProt P43119); conditions: screen, control agonist; CHO, 37C, 2HR
T1 construct: purchased Eurofins DiscoverX (PathHunter gpcrMAX)

[2] = biological target: T2, NPSR1b (Homo sapiens, UniProt Q6W5P4); conditions: screen, control agonist; U2OS, 37C, 2HR
T2 construct: purchased Eurofins DiscoverX (PathHunter gpcrMAX)
T2 sequence (Q6W5P4 1-377 isoform Q6W5P4-4): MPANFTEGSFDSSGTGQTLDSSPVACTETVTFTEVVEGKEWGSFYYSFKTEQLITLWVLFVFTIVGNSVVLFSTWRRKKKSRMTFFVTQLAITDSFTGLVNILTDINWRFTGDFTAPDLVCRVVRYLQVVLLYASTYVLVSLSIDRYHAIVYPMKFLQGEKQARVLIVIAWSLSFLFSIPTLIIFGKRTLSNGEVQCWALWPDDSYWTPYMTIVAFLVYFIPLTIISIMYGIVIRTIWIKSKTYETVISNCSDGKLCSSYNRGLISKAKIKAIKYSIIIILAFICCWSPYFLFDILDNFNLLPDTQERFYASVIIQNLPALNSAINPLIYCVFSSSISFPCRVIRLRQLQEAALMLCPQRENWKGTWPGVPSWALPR

[3] = biological target: T3, PTGER2 (Homo sapiens, UniProt P43116); conditions: screen, control agonist; CHO, 37C, 2HR
T3 construct: purchased Eurofins DiscoverX (PathHunter gpcrMAX)

[4] = biological target: PTGER4 (Homo sapiens, UniProt P35408); conditions: control agonist
Procedure: Follow up experiments were prioritized based on the difference between S/N and CoV. Targets with a >5-fold difference between S/N and CoV were investigated for their potential contribution to the AMB-FUBINACA toxidrome with 10-point concentration-response curves generated in technical replicate (range 1.5–30 μM) using the EC80 of the relevant agonist, where applicable in antagonist mode. Simultaneous agonist and antagonist curves were run in parallel to ensure reliability of the assay (see Supplementary Table 2), with both RC50 and signal to background aligning with historical averages, and Z' >0.5. RC50 was estimated using a four-parameter fit (CBIS Data Analysis Suite, ChemInnovation, San Diego, CA) on normalized data.

[5] = biological target: T4, NPY1R (Homo sapiens, UniProt P25929); conditions: screen, control agonist; CHO, RT, 2HR
T4 construct: purchased Eurofins DiscoverX (PathHunter gpcrMAX)
T4 sequence (P25929 1-384): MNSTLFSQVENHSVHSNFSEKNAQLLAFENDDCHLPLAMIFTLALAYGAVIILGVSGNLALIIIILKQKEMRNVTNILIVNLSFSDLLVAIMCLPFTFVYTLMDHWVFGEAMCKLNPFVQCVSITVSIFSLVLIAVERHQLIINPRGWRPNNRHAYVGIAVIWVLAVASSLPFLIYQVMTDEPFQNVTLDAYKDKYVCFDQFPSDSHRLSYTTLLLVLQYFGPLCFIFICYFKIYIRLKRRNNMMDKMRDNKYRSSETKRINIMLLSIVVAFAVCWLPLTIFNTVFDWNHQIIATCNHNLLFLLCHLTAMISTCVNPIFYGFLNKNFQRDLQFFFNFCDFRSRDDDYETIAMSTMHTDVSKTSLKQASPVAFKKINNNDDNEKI

[6] = biological target: T5, SSTR3 (Homo sapiens, UniProt P32745); conditions: screen, control agonist; CHO, 37C, 2HR
T5 construct: purchased Eurofins DiscoverX (PathHunter gpcrMAX)

[7] = biological target: T6, P2RY12 (Homo sapiens, UniProt Q9H244); conditions: screen, control agonist; CHO, RT, 2HR
T6 construct: purchased Eurofins DiscoverX (PathHunter gpcrMAX)

[8] = biological target: T7, P2RY1 (Homo sapiens, UniProt P47900); conditions: screen, control agonist; U2OS, RT, 2HR
T7 construct: purchased Eurofins DiscoverX (PathHunter gpcrMAX)

[9] = biological target: T8, P2RY11 (Homo sapiens, UniProt Q96G91); conditions: screen, control agonist; CHO, 37C, 2HR
T8 construct: purchased Eurofins DiscoverX (PathHunter gpcrMAX)

[10] = biological target: T9, OXER1 (Homo sapiens, UniProt Q8TDS5); conditions: screen, control agonist; CHO, RT, 2HR
T9 construct: purchased Eurofins DiscoverX (PathHunter gpcrMAX)

[11] = biological target: T10, BDKRB1 (Homo sapiens, UniProt P46663); conditions: screen, control agonist; CHO, 37C, 2HR
T10 construct: purchased Eurofins DiscoverX (PathHunter gpcrMAX)
T10 sequence (P46663 whole entry): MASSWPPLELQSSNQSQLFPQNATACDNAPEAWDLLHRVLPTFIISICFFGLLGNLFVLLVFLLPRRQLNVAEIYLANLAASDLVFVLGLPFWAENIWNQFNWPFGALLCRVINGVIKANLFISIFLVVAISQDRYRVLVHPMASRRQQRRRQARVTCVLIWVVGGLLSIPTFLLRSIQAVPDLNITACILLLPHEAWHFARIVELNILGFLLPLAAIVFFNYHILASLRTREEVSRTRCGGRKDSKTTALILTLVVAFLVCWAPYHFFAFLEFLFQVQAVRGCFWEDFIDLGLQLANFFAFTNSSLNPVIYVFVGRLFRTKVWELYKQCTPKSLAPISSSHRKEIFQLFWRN

Chain of PTGER4 (P35408 whole entry): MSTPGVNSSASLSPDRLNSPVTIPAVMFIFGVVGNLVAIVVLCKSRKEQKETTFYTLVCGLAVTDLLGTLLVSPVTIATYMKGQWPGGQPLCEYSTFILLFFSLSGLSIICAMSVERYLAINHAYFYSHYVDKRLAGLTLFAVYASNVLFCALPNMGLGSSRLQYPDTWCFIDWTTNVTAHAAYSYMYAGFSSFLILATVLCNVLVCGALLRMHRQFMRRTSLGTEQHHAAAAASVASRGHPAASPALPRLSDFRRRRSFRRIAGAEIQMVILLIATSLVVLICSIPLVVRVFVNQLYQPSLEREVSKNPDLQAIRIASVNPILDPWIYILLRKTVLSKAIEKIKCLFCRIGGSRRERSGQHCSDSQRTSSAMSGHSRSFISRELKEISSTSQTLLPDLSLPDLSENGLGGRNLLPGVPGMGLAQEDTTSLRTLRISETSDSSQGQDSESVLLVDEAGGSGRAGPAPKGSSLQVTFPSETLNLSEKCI
T3 sequence (P43116 whole entry): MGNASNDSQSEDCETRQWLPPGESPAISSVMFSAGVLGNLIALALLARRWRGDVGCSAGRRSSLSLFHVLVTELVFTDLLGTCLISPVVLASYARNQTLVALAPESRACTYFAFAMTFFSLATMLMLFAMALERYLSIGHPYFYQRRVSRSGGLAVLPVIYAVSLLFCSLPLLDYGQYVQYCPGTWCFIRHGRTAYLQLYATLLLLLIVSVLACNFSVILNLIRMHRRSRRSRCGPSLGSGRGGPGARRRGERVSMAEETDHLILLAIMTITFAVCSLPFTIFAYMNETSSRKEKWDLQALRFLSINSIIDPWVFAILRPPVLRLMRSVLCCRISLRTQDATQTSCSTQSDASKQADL
T9 sequence (Q8TDS5 whole entry): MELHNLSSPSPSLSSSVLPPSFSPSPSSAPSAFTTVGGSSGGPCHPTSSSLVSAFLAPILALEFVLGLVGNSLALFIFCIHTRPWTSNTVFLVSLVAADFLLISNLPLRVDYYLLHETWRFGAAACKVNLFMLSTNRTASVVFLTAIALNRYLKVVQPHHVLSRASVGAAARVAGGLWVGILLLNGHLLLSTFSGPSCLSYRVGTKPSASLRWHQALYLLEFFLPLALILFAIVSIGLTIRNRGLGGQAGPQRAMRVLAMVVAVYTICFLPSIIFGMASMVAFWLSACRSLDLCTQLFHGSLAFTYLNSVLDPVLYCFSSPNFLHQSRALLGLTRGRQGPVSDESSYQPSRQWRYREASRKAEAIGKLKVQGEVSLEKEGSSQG
T5 sequence (P32745 whole entry): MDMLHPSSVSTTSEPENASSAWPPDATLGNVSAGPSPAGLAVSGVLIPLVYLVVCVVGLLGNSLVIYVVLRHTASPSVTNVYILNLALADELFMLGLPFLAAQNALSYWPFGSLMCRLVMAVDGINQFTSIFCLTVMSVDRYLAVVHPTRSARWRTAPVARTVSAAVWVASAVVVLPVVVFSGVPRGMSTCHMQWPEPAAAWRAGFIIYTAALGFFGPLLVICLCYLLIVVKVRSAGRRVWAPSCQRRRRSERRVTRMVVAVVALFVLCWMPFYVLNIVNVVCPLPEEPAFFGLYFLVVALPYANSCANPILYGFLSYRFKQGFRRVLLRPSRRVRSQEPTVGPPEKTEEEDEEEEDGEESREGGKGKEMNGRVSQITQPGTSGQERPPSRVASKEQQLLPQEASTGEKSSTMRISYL
T7 sequence (P47900 whole entry): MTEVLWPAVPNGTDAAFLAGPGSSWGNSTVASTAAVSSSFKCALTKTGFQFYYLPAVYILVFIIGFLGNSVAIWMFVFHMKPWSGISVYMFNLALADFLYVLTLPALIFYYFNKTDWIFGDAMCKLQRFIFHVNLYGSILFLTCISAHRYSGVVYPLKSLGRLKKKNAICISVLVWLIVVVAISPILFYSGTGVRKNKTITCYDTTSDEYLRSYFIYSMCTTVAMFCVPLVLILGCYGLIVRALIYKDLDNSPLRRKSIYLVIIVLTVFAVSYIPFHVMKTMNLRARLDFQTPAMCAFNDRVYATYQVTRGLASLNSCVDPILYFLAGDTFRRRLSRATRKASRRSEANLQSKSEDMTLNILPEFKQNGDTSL
T6 sequence (Q9H244 whole entry, one chain of several): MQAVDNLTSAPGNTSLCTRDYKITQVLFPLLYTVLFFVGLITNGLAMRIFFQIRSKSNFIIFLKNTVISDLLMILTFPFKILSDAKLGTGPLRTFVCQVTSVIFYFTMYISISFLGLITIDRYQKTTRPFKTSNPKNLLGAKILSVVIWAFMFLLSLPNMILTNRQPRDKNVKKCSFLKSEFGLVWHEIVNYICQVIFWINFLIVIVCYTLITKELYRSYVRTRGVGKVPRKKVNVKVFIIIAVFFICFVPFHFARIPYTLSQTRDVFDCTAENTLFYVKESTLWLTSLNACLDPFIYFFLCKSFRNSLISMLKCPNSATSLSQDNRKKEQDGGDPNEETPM
T1 sequence (P43119 whole entry): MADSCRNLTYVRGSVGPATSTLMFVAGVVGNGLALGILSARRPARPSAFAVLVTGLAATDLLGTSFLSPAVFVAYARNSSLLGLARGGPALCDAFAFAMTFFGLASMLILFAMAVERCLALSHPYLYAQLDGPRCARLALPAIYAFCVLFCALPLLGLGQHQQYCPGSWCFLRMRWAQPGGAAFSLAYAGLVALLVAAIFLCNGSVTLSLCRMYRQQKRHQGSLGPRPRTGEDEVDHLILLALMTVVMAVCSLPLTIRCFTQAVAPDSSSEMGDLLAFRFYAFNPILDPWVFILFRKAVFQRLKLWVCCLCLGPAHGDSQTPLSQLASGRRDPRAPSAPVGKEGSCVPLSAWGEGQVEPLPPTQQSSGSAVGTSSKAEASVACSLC
T8 sequence (Q96G91 whole entry, one chain of several): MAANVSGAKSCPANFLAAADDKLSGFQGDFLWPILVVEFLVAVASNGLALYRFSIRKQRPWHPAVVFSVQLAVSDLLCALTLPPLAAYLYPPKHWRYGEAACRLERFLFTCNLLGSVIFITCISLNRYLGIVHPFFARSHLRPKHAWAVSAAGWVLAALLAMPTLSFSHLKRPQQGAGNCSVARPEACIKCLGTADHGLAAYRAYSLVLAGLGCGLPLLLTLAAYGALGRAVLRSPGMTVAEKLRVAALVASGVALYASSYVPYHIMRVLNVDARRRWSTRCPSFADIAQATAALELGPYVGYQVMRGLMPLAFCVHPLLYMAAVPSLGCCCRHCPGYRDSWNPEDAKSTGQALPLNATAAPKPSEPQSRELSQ

Work on `CC#CCC(C)[C@H](O)/C=C/[C@@H]1[C@H]2c3cccc(CCCC(=O)O)c3O[C@H]2C[C@H]1O` (mixture of isomers) [Beraprost] yielded an EC80 [1] of 1.7 µM.
For “Neuropeptide S (SFRNGVGTGMKKTSFQRAKS; Neuropeptide S; UniProt P0C0P6 70-89, looked up) [control agonist]”, the EC80 [2] was 0.0457 µM.
Compound `CCCCC[C@H](O)/C=C/[C@H]1[C@H](O)CC(=O)[C@@H]1C/C=C\CCCC(=O)O` [Prostaglandin E2] has an EC80 [3] of 3.65 µM, an EC80 ([4]; follow-up concentration-response assays) of 0.00475 µM and an EC80 ([4]; screen, HEK, 37C, 2HR) of 0.00358 µM.
In the case of Peptide YY: control agonist, the EC80 [5] is reported as 0.00418 µM.
Tyr-SST 14 gave an EC80 [6] of 0.0542 µM.
In the case of `CSc1nc(N)c2ncn([C@@H]3O[C@H](COP(=O)(O)OP(=O)(O)O)[C@@H](O)[C@H]3O)c2n1` [2-methylthio-ADP], the EC80 [7] is reported as 0.00157 µM and the EC80 [8] is reported as 0.0414 µM.
For `Nc1ncnc2c1ncn2[C@@H]1O[C@H](COP(=O)(O)OP(=O)(O)OP(=O)(O)O)[C@@H](O)[C@H]1O` [ATP], the EC80 [9] was 1290 µM.
In the case of `CCCCC/C=C\C/C=C\C/C=C\C=C\C(=O)CCCC(=O)O` [5-OxoETE], the EC80 [10] is reported as 2.13 µM.
LDA-Bradykinin showed an EC80 [11] of 0.00467 µM.
